Test results from ChEMBL document CHEMBL1149576, “Convergent synthesis and in vivo inhibitory effect on fat accumulation of (-)-ternatin, a highly N-methylated cyclic peptide” (2007).
Activity calls are given as the source filed them. The calls are words filed in the database; no cut-off is given here.

Tested on: 3T3-L1
Assay: Inhibition of fat accumulation in mouse 3T3L1 adipocytes
Assay type: functional, cell-based

CC[C@H](C)[C@H]1NC(=O)[C@@H]([C@H](O)C(C)C)NC(=O)[C@@H](C)N(C)C(=O)[C@H](C)N(C)C(=O)[C@H](CC(C)C)NC(=O)[C@H](CC(C)C)N(C)C(=O)[C@H](C)N(C)C1=O
Activity: Active
